Assay results from PubChem BioAssay (NCI).
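Test compounds were applied to cells in 96-well plates for 48 hours at 5 doses. TGI marks complete inhibition of growth.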

What was measured:
Assay in all cases: NCI anticancer screen, dose series, 48 h
A549 NSCLC = tested on: A549 NSCLC
NCI-H23 lung = tested on: NCI-H23 lung
MALME-3M melanoma = tested on: MALME-3M melanoma
ACHN renal = tested on: ACHN renal
SF-295 CNS = tested on: SF-295 CNS
KM12 colon = tested on: KM12 colon
COLO 205 colon = tested on: COLO 205 colon
UO-31 renal = tested on: UO-31 renal
PC-3 prostate = tested on: PC-3 prostate
SF-539 CNS = tested on: SF-539 CNS
OVCAR-5 ovarian = tested on: OVCAR-5 ovarian
SF-268 CNS = tested on: SF-268 CNS
HCT-116 colon = tested on: HCT-116 colon
TK-10 renal = tested on: TK-10 renal
UACC-257 melanoma = tested on: UACC-257 melanoma
NCI-H226 lung = tested on: NCI-H226 lung
RXF 393 renal = tested on: RXF 393 renal
NCI-H460 lung = tested on: NCI-H460 lung
NCI-H522 lung = tested on: NCI-H522 lung
HT29 colon = tested on: HT29 colon

| Structure (SMILES) | TGI (A549 NSCLC) [µM] | TGI (NCI-H23 lung) [µM] | TGI (MALME-3M melanoma) [µM] | TGI (ACHN renal) [µM] | TGI (SF-295 CNS) [µM] | TGI (KM12 colon) [µM] | TGI (COLO 205 colon) [µM] | TGI (UO-31 renal) [µM] | TGI (PC-3 prostate) [µM] | TGI (SF-539 CNS) [µM] | TGI (OVCAR-5 ovarian) [µM] | TGI (SF-268 CNS) [µM] | TGI (HCT-116 colon) [µM] | TGI (TK-10 renal) [µM] | TGI (UACC-257 melanoma) [µM] | TGI (NCI-H226 lung) [µM] | TGI (RXF 393 renal) [µM] | TGI (NCI-H460 lung) [µM] | TGI (NCI-H522 lung) [µM] | TGI (HT29 colon) [µM] |
| --- | --- | --- | --- | --- | --- | --- | --- | --- | --- | --- | --- | --- | --- | --- | --- | --- | --- | --- | --- | --- |
| O=C(Nc1sccc1S(=O)(=O)c1ccc(Cl)cc1)c1ccccc1 | > 100 | > 100 | > 100 | > 100 | > 100 | > 100 | > 100 | > 100 | > 100 | > 100 | > 100 | > 100 | > 100 | > 100 | > 100 | > 100 | > 100 | > 100 | > 100 | > 100 |
| CCOC(=O)c1nnsc1NN=C(C)C | > 100 | > 100 | > 100 | – | > 100 | > 100 | > 100 | > 100 | > 100 | > 100 | > 100 | > 100 | > 100 | > 100 | > 100 | > 100 | > 100 | > 100 | > 100 | > 100 |
| NC(=O)CCC(CCC(N)=O)(CCC(N)=O)[N+](=O)[O-] | > 100 | > 100 | > 100 | > 100 | > 100 | > 100 | > 100 | > 100 | > 100 | > 100 | > 100 | > 100 | > 100 | > 100 | > 100 | > 100 | > 100 | > 100 | > 100 | > 100 |
| CC1OC(OC2C(CO)OC(O[C@H]3CC[C@@]4(C)C(=CC[C@H]5[C@@H]6C[C@@H]7O[C@](O)(CC[C@H](C)COC8OC(CO)C(O)C(O)C8O)[C@@H](C)[C@@H]7[C@@]6(C)CC[C@@H]54)C3)C(OC3OC(C)C(O)C(O)C3O)C2O)C(O)C(O)C1O (stereo not given in full) | 5.55 | 17.4 | 18.9 | 40.3 | 23.1 | 5.69 | > 35.5 | 13.3 | 15.9 | > 21.6 | > 49.1 | 11.5 | > 32.1 | > 100 | > 49.9 | 85 | 98.7 | > 45.7 | 7.53 | > 100 |
| COc1cc([C@H]2CC(=O)C[C@@H](c3cc(OC)c(OC)c(OC)c3)C23C(=O)c2ccccc2C3=O)cc(OC)c1OC | > 100 | > 100 | > 100 | > 100 | > 100 | > 100 | > 100 | > 100 | > 100 | > 100 | > 100 | > 100 | > 100 | > 100 | > 100 | > 100 | > 100 | > 100 | > 100 | > 100 |
| Cc1cn([C@H]2C[C@@H]3[C@@H](COC(CCl)N3O)O2)c(=O)[nH]c1=O (stereo not given in full) | > 100 | – | > 100 | – | > 100 | > 100 | > 100 | > 100 | > 100 | > 100 | > 100 | > 100 | > 100 | > 100 | > 100 | > 100 | > 100 | > 100 | > 100 | > 100 |
| CC(C)[Si](OC1=C(c2ccccc2)C(NC(=O)/C=C/c2ccc([N+](=O)[O-])cc2)CCC1)(C(C)C)C(C)C (stereo not given) | > 100 | > 100 | > 100 | – | > 100 | > 100 | > 100 | > 100 | > 100 | > 100 | > 100 | > 100 | > 100 | > 100 | > 100 | > 100 | > 100 | > 100 | > 100 | > 100 |
| C/C=N\n1c(C)c(C#N)c(C#N)c1N | > 100 | > 100 | > 100 | > 100 | > 100 | > 100 | > 100 | > 100 | > 100 | > 100 | > 100 | > 100 | > 100 | > 100 | > 100 | > 100 | > 100 | – | > 100 | > 100 |
| CC(=O)OC[C@@]1(C)[C@@H]2[C@@H]3[C@@]4(CO[C@]3(C)C(=O)[C@@]3(O)C[C@H](C)[C@H](OC(C)=O)[C@@H]3[C@H]4OC(C)=O)[C@H](OC(=O)c3ccccc3)C[C@@H]21 | > 100 | > 100 | > 100 | > 100 | > 100 | > 100 | > 100 | > 100 | > 100 | > 100 | > 100 | > 100 | > 100 | > 100 | > 100 | > 100 | > 100 | > 100 | > 100 | > 100 |
| COc1cc(C2S/C(=C/c3ccccc3)C(=O)N2c2cc(Cl)c(Cl)cc2Cl)cc(OC)c1OC (stereo not given) | > 100 | > 100 | > 84.4 | > 100 | > 100 | > 78.3 | > 100 | > 100 | > 100 | > 100 | > 100 | > 100 | > 75 | > 100 | > 100 | > 100 | > 100 | > 100 | > 66.5 | > 100 |
| COc1cc2c(cc1OC)-c1c(oc3cc(OC4OC(CO)C(O)C(O)C4O)c(OC)cc3c1=O)C(O)O2 (stereo not given) | > 100 | > 100 | > 100 | > 100 | > 100 | > 100 | > 100 | > 100 | > 100 | > 100 | > 100 | > 100 | > 100 | > 100 | > 100 | > 100 | > 100 | > 100 | > 100 | > 100 |
| COC(=O)C(Cc1c(C2Nc3ccccc3C2CC(NC(C)=O)C(=O)OC)[nH]c2ccccc12)NC(C)=O (stereo not given) | > 100 | > 100 | > 100 | > 100 | > 100 | > 100 | > 100 | > 100 | > 100 | > 100 | > 100 | > 100 | > 100 | > 100 | > 100 | > 100 | > 100 | > 100 | > 100 | > 100 |
| C/C(=N/c1[nH]c(=O)cc2c1C(=O)CC2)N(C)C | > 200 | > 200 | > 200 | > 200 | > 200 | > 200 | > 200 | > 200 | > 200 | > 200 | > 200 | > 200 | > 200 | > 200 | > 200 | > 200 | > 200 | > 200 | > 200 | > 200 |
| N#C/C(C(=S)Nc1ccccc1)=C(/N)N1CCCC1 | > 100 | > 100 | > 100 | > 100 | > 100 | > 100 | > 100 | > 100 | > 100 | > 100 | > 100 | > 100 | > 100 | > 100 | > 100 | > 100 | > 100 | > 100 | > 100 | > 100 |
| CCOC(=O)c1c(-c2ccccc2)nc2c(OC)nccn12 | > 100 | > 100 | > 100 | – | > 100 | > 100 | > 100 | > 100 | > 100 | > 100 | – | > 100 | > 100 | > 100 | > 100 | > 100 | 80.9 | > 100 | > 100 | > 100 |
| COC(=O)c1ccc(COC(=O)N2C=CCC2C(=O)O)cc1 (stereo not given) | > 100 | > 100 | > 100 | > 100 | > 100 | > 100 | > 100 | > 100 | > 100 | > 100 | > 100 | > 100 | – | > 100 | > 100 | > 100 | > 100 | > 100 | > 100 | > 100 |
| COC(=O)C1(Cc2cccc(C)c2)Cc2c(C)cccc2C1=O (stereo not given) | > 100 | > 100 | > 100 | > 100 | > 100 | > 100 | > 100 | > 100 | > 100 | > 100 | > 100 | > 100 | > 100 | > 100 | > 100 | > 100 | > 100 | > 100 | 73.3 | 89.7 |
| CC1(C)CCCCCCC2CC2CCCCCC(C)(C)C1=O (stereo not given) | > 100 | > 100 | > 100 | > 100 | > 100 | > 100 | > 100 | > 100 | > 100 | > 100 | > 100 | > 100 | > 100 | > 100 | > 100 | > 100 | > 100 | > 100 | > 100 | > 100 |
| CCCC(=O)NC(C(=O)OCC)(N1CCOCC1)C(F)(F)F (stereo not given) | > 100 | > 100 | > 100 | > 100 | > 100 | > 100 | > 100 | > 100 | > 100 | > 100 | > 100 | > 100 | > 100 | > 100 | > 100 | > 100 | > 100 | – | > 100 | > 100 |
| C=C(C)[C@H]1C[C@@H]2O[C@@](O)(/C(C)=C\C(=O)/C=C(/C)C[C@H]3OC(=O)[C@@]24O[C@H]34)[C@@H]1O | > 100 | – | > 100 | > 100 | > 100 | > 100 | > 100 | – | > 100 | > 100 | > 100 | > 100 | > 100 | > 100 | > 100 | > 100 | 97.6 | > 100 | > 100 | > 100 |
| COC(=O)/C(=N\NC(=S)NN)C(C(=O)OC)C(=O)C(=O)Nc1cccc(C(F)(F)F)c1 (stereo not given) | > 100 | > 100 | > 100 | > 100 | > 100 | > 100 | – | > 100 | > 100 | > 100 | > 100 | > 100 | > 100 | > 100 | > 100 | > 100 | > 100 | > 100 | > 100 | > 100 |
| COCCN(CCOC)C(=O)COc1c2cc(C(C)(C)C)cc1Cc1cc(C(C)(C)C)cc(c1OCC(=O)N(CCOC)CCOC)Cc1cc(C(C)(C)C)cc(c1OCC(=O)N(CCOC)CCOC)Cc1cc(C(C)(C)C)cc(c1OCC(=O)N(CCOC)CCOC)Cc1cc(C(C)(C)C)cc(c1OCC(=O)N(CCOC)CCOC)C2 | 11.3 | 4.19 | 16.9 | 12.6 | 6.43 | 11.1 | 1.96 | – | 3.48 | 5.9 | 18.2 | 19.1 | 3.78 | 15 | 6.58 | 11 | 4.03 | 5.86 | 6.9 | 8.13 |
| CCCNC(=O)Cn1c(C)cc2ccccc21 | > 100 | > 100 | > 100 | > 100 | – | > 100 | > 100 | > 100 | > 100 | > 100 | > 100 | > 100 | > 100 | > 100 | > 100 | > 100 | > 100 | – | > 100 | > 100 |
